Reference: patent publication US8614327B2 (Vertex Pharmaceuticals Incorporated, priority 2004, dated 2013)

Target: T1, ΔF508-CFTR (Homo sapiens, UniProt P13569, DEL508-508)
T1 construct: expressed in transfected cells
Experiment: Membrane potential optical (FRET/VIPR) assay, identification of potentiator compounds
Format: cell-based
Settings: Table 3, assay not given; for % Activity: relative efficacy
Summary of the method: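 Double-addition potentiator screen: compound delivered in gluconate-substituted Cl^--free medium, membrane potential followed via CC2-DMPE/DiSBAC2(3) FRET on VIPR. Cells were ΔF508-CFTR-expressing NIH3T3 mouse fibroblasts, held 2 h at 37° C. then 24 h at 27° C. before assay.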

T1 sequence (P13569 with tags, fused parts or gaps DEL508-508): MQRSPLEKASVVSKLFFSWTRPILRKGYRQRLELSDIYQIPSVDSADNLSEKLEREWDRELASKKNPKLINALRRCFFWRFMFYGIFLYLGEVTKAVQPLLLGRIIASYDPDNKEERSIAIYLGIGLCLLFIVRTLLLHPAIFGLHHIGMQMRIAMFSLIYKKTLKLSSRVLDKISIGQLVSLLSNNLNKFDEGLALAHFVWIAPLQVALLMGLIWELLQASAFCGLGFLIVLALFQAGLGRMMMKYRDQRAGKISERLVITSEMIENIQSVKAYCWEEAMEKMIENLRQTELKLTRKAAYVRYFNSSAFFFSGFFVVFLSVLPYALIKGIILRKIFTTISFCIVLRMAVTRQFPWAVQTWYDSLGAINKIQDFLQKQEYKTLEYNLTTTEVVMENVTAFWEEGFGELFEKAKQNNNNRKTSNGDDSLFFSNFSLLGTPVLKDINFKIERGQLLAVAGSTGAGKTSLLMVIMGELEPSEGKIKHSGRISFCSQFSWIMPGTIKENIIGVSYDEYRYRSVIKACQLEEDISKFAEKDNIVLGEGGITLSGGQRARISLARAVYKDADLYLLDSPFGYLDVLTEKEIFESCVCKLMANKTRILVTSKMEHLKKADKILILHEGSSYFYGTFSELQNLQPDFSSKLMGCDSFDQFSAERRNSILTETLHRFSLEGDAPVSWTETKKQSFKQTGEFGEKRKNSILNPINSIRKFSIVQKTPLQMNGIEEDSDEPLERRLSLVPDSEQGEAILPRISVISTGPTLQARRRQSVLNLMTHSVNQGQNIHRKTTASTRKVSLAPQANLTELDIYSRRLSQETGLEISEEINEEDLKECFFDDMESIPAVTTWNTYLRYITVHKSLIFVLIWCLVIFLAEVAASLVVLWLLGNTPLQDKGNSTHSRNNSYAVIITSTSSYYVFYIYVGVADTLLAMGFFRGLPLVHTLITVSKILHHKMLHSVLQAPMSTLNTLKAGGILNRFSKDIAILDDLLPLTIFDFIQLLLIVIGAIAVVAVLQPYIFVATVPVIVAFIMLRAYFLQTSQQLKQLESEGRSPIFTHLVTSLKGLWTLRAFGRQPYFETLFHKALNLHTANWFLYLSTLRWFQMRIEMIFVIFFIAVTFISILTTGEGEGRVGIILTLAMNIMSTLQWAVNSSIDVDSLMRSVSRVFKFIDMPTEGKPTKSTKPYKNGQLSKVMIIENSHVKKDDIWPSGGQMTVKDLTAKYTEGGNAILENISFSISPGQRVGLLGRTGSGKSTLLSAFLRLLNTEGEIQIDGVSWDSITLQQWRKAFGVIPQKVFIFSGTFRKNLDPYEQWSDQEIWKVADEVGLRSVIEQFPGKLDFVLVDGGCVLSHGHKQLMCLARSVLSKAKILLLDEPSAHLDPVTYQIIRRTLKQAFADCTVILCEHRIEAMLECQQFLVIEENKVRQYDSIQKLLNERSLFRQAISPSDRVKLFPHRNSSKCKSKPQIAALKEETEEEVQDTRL

SMILES | EC50 [µM] | % Activity
O=C(Nc1cc(Cl)cc(NS(=O)(=O)CCN2CCOCC2)c1)c1c[nH]c2ccccc2c1=O [Compound 46, N-[3-chloro-5-(2-morpholinoethylsulfonylamino)phenyl]-4-oxo-1H-quinoline-3-carboxamide] | 10 to 25 | ++ (between 25% to 100%)
O=C(Nc1cc(Cl)cc(NS(=O)(=O)CCN2CCCCC2)c1)c1c[nH]c2ccccc2c1=O [Compound 133, N-[3-chloro-5-[2-(1-piperidyl)ethylsulfonylamino]phenyl]-4-oxo-1H-quinoline-3-carboxamide] | 10 to 25 | ++ (between 25% to 100%)
CC(C)(C)COC(=O)NCC(C)(C)c1ccc(NC(=O)c2c[nH]c3ccccc3c2=O)cc1 [Compound 341, [2-methyl-2-[4-[(4-oxo-1H-quinolin-3-yl)carbonylamino]phenyl]-propyl]aminoformic acid neopentyl ester] | < 10 | ++ (between 25% to 100%)
N#CCc1ccccc1NC(=O)c1c[nH]c2ccccc2c1=O [Compound 308, N-[2-(cyanomethyl)phenyl]-4-oxo-1H-quinoline-3-carboxamide] | 10 to 25 | ++ (between 25% to 100%)
CCOCCOc1cc(NC(=O)c2c[nH]c3ccccc3c2=O)ccc1C(C)(C)C [Compound 161, N-[3-(2-ethoxyethoxy)-4-tert-butyl-phenyl]-4-oxo-1H-quinoline-3-carboxamide] | < 10 | ++ (between 25% to 100%)
O=C(Nc1ccc2c(c1)CCCC2)c1c[nH]c2ccccc2c1=O [Compound 375, 1,4-dihydro-N-(1,2,3,4-tetrahydronaphthalen-6-yl)-4-oxoquinoline-3-carboxamide] | < 10 | ++ (between 25% to 100%)
CC(=O)Nc1cc(NC(=O)c2c[nH]c3ccccc3c2=O)ccc1C [Compound 248, N-(3-Acetylamino-4-methyl-phenyl)-4-oxo-1H-quinoline-3-carboxamide] | 10 to 25 | ++ (between 25% to 100%)
CCOC(=O)Nc1cc(NC(=O)c2c[nH]c3ccccc3c2=O)ccc1C(C)C [Compound 225, [2-isopropyl-5-[(4-oxo-1H-quinolin-3-yl)carbonylamino]phenyl]aminoformic acid ethyl ester] | < 10 | ++ (between 25% to 100%)
CCCc1ccc(NC(=O)c2c[nH]c3ccccc3c2=O)cc1NS(C)(=O)=O [Compound 340, N-(3-methylsulfonylamino-4-propyl-phenyl)-4-oxo-1H-quinoline-3-carboxamide] | < 10 | ++ (between 25% to 100%)
C=C(C)c1ccccc1NC(=O)c1c[nH]c2ccccc2c1=O [Compound 445, N-(2-isopropenylphenyl)-4-oxo-1H-quinoline-3-carboxamide] | < 10 | +++ (>100%)
CN(C)CCNC(=O)c1ccc(-c2cc3cc[nH]c3cc2NC(=O)c2c[nH]c3ccccc3c2=O)cc1 [Compound 347, N-[5-[4-(2-dimethylaminoethylcarbamoyl)phenyl]-1H-indol-6-yl]-4-oxo-1H-quinoline-3-carboxamide] | 10 to 25 | ++ (between 25% to 100%)
N#Cc1ccccc1NC(=O)c1c[nH]c2ccccc2c1=O [Compound 95, N-(2-cyanophenyl)-4-oxo-1H-quinoline-3-carboxamide] | 10 to 25 | ++ (between 25% to 100%)
CC(C)(C)c1cc(C(C)(C)C)c(NC(=O)c2c[nH]c3c(C#N)cccc3c2=O)cc1O [Compound 505, 8-cyano-N-(5-hydroxy-2,4-ditert-butyl-phenyl)-4-oxo-1H-quinoline-3-carboxamide] | < 10 | + (<25%)
CCc1ccc(NC(=O)c2c[nH]c3ccccc3c2=O)cc1NC(C)=O [Compound 149, N-(3-acetylamino-4-ethyl-phenyl)-4-oxo-1H-quinoline-3-carboxamide] | 10 to 25 | ++ (between 25% to 100%)
CC(C)(C)OC(=O)N1CCC2(CCNc3cc(NC(=O)c4c[nH]c5ccccc5c4=O)ccc32)CC1 [Compound 238, 7′-[(4-oxo-1H-quinolin-3-ylcarbonyl)amino]-spiro[piperidine-4,4′(1′H)-quinoline], 2′,3′-dihydro-carboxylic acid tert-butyl ester] | < 10 | ++ (between 25% to 100%)
CC(C)(C)OC(=O)N1CCC(C)(C)c2ccc(NC(=O)c3c[nH]c4ccccc4c3=O)cc21 [Compound 108, 4,4-dimethyl-7-[(4-oxo-1H-quinolin-3-yl)carbonylamino]-1,2,3,4-tetrahydroquinoline-1-carboxylic acid tert-butyl ester] | < 10 | ++ (between 25% to 100%)

Other lines, results leading:

EC50 [µM] | % Activity | SMILES
< 10 | ++ (between 25% to 100%) | O=C(Nc1ccccc1N1CCCCC1)c1c[nH]c2ccccc2c1=O [Compound 26, 4-oxo-N-[2-(1-piperidyl)phenyl]-1H-quinoline-3-carboxamide]
< 10 | ++ (between 25% to 100%) | COc1cc(NC(=O)c2c[nH]c3ccccc3c2=O)ccc1-n1c(C)ccc1C [Compound 560, N-[4-(2,5-dimethylpyrrol-1-yl)-3-methoxy-phenyl]-4-oxo-1H-quinoline-3-carboxamide]
< 10 | ++ (between 25% to 100%) | Nc1cc(NC(=O)c2c[nH]c3ccccc3c2=O)ccc1OC(F)(F)F [Compound 58, N-[3-amino-4-(trifluoromethoxy)phenyl]-4-oxo-1H-quinoline-3-carboxamide]
– | ++ (between 25% to 100%) | O=C(Nc1cccnc1Oc1ccc(F)cc1F)c1c[nH]c2ccccc2c1=O [Compound 385, N-[2-(2,4-difluorophenoxy)-3-pyridyl]-4-oxo-1H-quinoline-3-carboxamide]
< 10 | ++ (between 25% to 100%) | CC(C)(C)OC(=O)N1CCc2c(cccc2NC(=O)c2c[nH]c3ccccc3c2=O)C1 [Compound 427, 5-[(4-oxo-1H-quinolin-3-yl)carbonylamino]-1,2,3,4-tetrahydroisoquinoline-2-carboxylic acid tert-butyl ester]
< 10 | ++ (between 25% to 100%) | Cc1cc(OC(F)(F)F)ccc1NC(=O)c1c[nH]c2ccccc2c1=O [Compound 538, N-[2-methyl-4-(trifluoromethoxy)phenyl]-4-oxo-1H-quinoline-3-carboxamide]
– | ++ (between 25% to 100%) | CC(C)c1ccc(NC(=O)c2c[nH]c3ccccc3c2=O)cc1 [Compound 425, N-(4-isopropylphenyl)-4-oxo-1H-quinoline-3-carboxamide]
< 10 | ++ (between 25% to 100%) | CC(C)c1ccc(NC(=O)c2c[nH]c3cccc(O)c3c2=O)cc1O [Compound 587, 5-hydroxy-N-(3-hydroxy-4-isopropyl-phenyl)-4-oxo-1H-quinoline-3-carboxamide]
< 10 | ++ (between 25% to 100%) | Cc1cccc(-c2ccccc2NC(=O)c2c[nH]c3ccccc3c2=O)c1 [Compound 52, N-[2-(m-tolyl)phenyl]-4-oxo-1H-quinoline-3-carboxamide]
< 10 | +++ (>100%) | CC1(c2cc(F)c(NC(=O)c3c[nH]c4cccc(C(F)(F)F)c4c3=O)cc2O)CCCCC1 [Compound 706, N-[2-fluoro-5-hydroxy-4-(1-methylcyclohexyl)-phenyl]-4-oxo-5-(trifluoromethyl)-1H-quinoline-3-carboxamide]
10 to 25 | ++ (between 25% to 100%) | COc1ncccc1NC(=O)c1c[nH]c2ccccc2c1=O [Compound 15, N-(2-methoxy-3-pyridyl)-4-oxo-1H-quinoline-3-carboxamide]
– | ++ (between 25% to 100%) | O=C(Nc1cc(O)c2ccccc2c1)c1c[nH]c2ccccc2c1=O [Compound 551, N-(4-hydroxy-2-naphthyl)-4-oxo-1H-quinoline-3-carboxamide]
10 to 25 | ++ (between 25% to 100%) | O=C(Nc1ccc(CO)cc1)c1c[nH]c2ccccc2c1=O [Compound 209, N-[4-(hydroxymethyl)phenyl]-4-oxo-1H-quinoline-3-carboxamide]
< 10 | ++ (between 25% to 100%) | CC(C)OC(=O)c1cccc(-c2ccccc2NC(=O)c2c[nH]c3ccccc3c2=O)c1 [Compound 71, 3-[2-[(4-oxo-1H-quinolin-3-yl)carbonylamino]phenyl]benzoic acid isopropyl ester]
< 10 | ++ (between 25% to 100%) | O=C(Nc1ccc2c(C3CCCC3)c[nH]c2c1)c1c[nH]c2ccccc2c1=O [Compound 186, N-(3-cyclopentyl-1H-indol-6-yl)-4-oxo-1H-quinoline-3-carboxamide]
< 10 | ++ (between 25% to 100%) | CC(C)(C)c1cc(F)c(NC(=O)c2c[nH]c3ccccc3c2=O)cc1O [Compound 143, N-(2-fluoro-5-hydroxy-4-tert-butyl-phenyl)-4-oxo-1H-quinoline-3-carboxamide]
< 10 | ++ (between 25% to 100%) | O=C(Nc1ccc(C(F)(F)F)c(O)c1)c1c[nH]c2ccccc2c1=O [Compound 506, N-[3-hydroxy-4-(trifluoromethyl)phenyl]-4-oxo-1H-quinoline-3-carboxamide]
< 10 | ++ (between 25% to 100%) | CC(C)(C)c1ccc(NC(=O)c2c[nH]c3ccccc3c2=O)cc1N1CCCCC1 [Compound 510, 4-oxo-N-[3-(1-piperidyl)-4-tert-butyl-phenyl]-1H-quinoline-3-carboxamide]
< 10 | ++ (between 25% to 100%) | CC(=O)c1ccc2c(=O)c(C(=O)Nc3cc(O)c(C(C)(C)C)cc3C(C)(C)C)c[nH]c2c1 [Compound 604, 7-acetyl-N-(5-hydroxy-2,4-ditert-butyl-phenyl)-4-oxo-1H-quinoline-3-carboxamide]
